The record followed here is patent US8227240B2, “Systems for screening pharmaceutical chemicals” (The Washington University, priority 2001, dated 2012).

The structures appear in SMILES notation.

In the experiment the test system is chicken embryo fibroblasts (CEF's) tissue model. The experiment is described as follows: Ring system: isometric force and dynamic stiffness of fibroblast populated matrices (FPM). It counts as cell-based. To be noted: for contractile force produced in response to serum activation: cytochalasin D 2 μM. The method, then: Chicken embryo fibroblasts (CEF's) isolated from 11-day chicken embryos (Spafas Inc., Preston, Conn.) were maintained in Dulbecco's modified Eagle's medium (DMEM) supplemented with 10% fetal calf serum (FCS), penicillin at 50 units/ml, and streptomycin at 50 microgram/milliliter. The CEF's used to make tissue models were passaged once or twice from primary cultures. Monomeric collagen solubilized in 0.02 M acetic acid (Upstate Biotechnology Inc., Lake Placid, N.Y.) was neutralized at 4° C. with 0.1 N NaOH and mixed with concentrated DMEM stock to yield a final normal DMEM concentration. The fibroblasts suspended by trypsin (FIG. 1a) were mixed with the collagen solution (FIG. 1b), the cell suspension was poured into Teflon casting wells (FIG. 1c), and the wells were incubated at 37° C. with 5% CO2 (FIG. 1d). The collagen polymerized within 15-30 min and fibroblasts were captured within the hydrated collagen gel. The collagen gel formed a ring (3 mm thick, 3 cm diameter) between the inner wall of the cylindrical well and the central mandrel. While in culture the cells compressed this ring, reducing its volume about 10-fold (thickness 200-300 μm). The ring could then be removed from the mandrel (FIG. 1e and FIG. 1f) and mounted on the measuring instrument (FIG. 1g) as described below.
Mechanical measurements were carried out using a ring system. After two days of incubation (serum starvation for the final 12-16 hours), the mandrel was removed from the casting well and the tissue model-ring was removed gently from the mandrel. As shown in FIG. 1 the tissue model-ring was looped over the triangular hook connected to an isometric force transducer (Model 52-9545, Harvard Apparatus, South Natick, Mass.) by a fine, flexible gold chain. The ring was also looped over a horizontal bar connected to a sliding element moveable vertically and linearly by a stepper motor (P/N 1-19-3400 24V DC 1.8° step size, Haward Industry, St. Louis, Mo.) controlled by a micro-stepping driver (IM483 Intelligent Motion Systems) to measure stress and dynamic modulus of the sample. The micro-stepping driver was controlled by a personal computer with software which enabled the stepper motor to achieve smooth motion. An analog-to-digital signal converter (CIO-DAS1602/16, Computer Boards, Inc., Mansfield, Mass.) attached to the computer translated the voltage signal from the isometric force transducer to a digital signal for recording on a data recorder. The stepper motor controlled the stretching of the tissue. Force exerted by or on the tissue was transmitted to the force transducer by the gold chain.
The tissue sample was submerged in 50 ml Hepes-buffered DMEM (pH 7.4) in a thermo-regulated organ bath (Harvard Apparatus, South Natick, Mass.) maintained at 37° C. The two horizontal bars over which the ring was looped were initially set to hold the ring at its original contour length (corresponding to the circumference of the mandrel).
Typically, for stiffness measurements, the tissue model is subjected to a sequence of stretch cycles. In each cycle the tissue model is slowly stretched from 0 to 20% over 30 minutes and the tissue model is then returned at the same rate to its original length by actuation of the stepper motor. The resulting increase in contractile force during the first stretch is substantially larger than the contractile force in subsequent stretches (FIG. 2a). For each stretch after the first stretch there is a further small decrease in maximum contractile force, but the decrease becomes negligible after sufficient pre-stretching. The tissue models produced contractile force in response to the activation of fibroblasts by serum. This contractile force was abolished by disrupting the actin cytoskeleton with cytochalasin D (2 μM) (FIG. 2b).
The amplitude of the force response divided by the stretching amplitude corresponded to the dynamic stiffness of the sample subjected to a preselected sinusoidal length change. […]

`C=C1[C@@H](C)[C@H]2[C@H](Cc3ccccc3)NC(=O)[C@]23[C@H](OC(C)=O)/C=C/[C@@](C)(O)C(=O)[C@@H](C)C/C=C/[C@H]3[C@@H]1O` [CD, cytochalasin D]: the “concentration range over which tension and stiffness decrease” value is “almost three decades”; the “lowest concentration at which force and dynamic stiffness were significantly diminished” value was found to be 2 nM. Under “CD 2 μM”, the dynamic stiffness result is “nearly reached its minimum value” and the isometric force entry is “reduced almost to zero”. Also, the “contractile force produced in response to serum activation” value (listed as Cytochalasin D) was “abolition of active contractility”. Further, the “contractile force produced in response to serum activation” value (listed as cytochalasin D) is “abolished”. The “effect on viscosity of the tissues (phase angle δ)” value (data not shown) was “relatively minor effect”. For the same compound, the IC50 (two day-old tissue models, serum starved 16 hours, serial additions, read-out: concentration needed to reduce the force and dynamic stiffness by 50%) is roughly 250 nM.
